From the NIST ThermoML archive (doi:10.1021/je900882r)

Key:
[1] = mn = molality of the nth substance listed, in mol/kg; conditions: 298.15 K, 101 kPa, Liquid
[2] = refractive index (Na D-line) (dimensionless); mn = molality of the nth substance listed, in mol/kg; conditions: 298.15 K, 101 kPa, Liquid
[3] = cn = amount concentration of the nth substance listed, in mol/dm3; conditions: 298.15 K, 101 kPa, Liquid; for molar conductivity: Alternating current cell with electrodes; for viscosity: Capillary tube (Ostwald / Ubbelohde) method

CCCCn1cc[n+](C)c1.[Br-] [1-butyl-3-methylimidazolium bromide] + O
Conditions | mass density, [1] [kg/m3] | refractive index, [2]
m1 = 0.0909 | 1001.54 | 1.3357
m1 = 0.0915 | 1001.77 | 1.3359
m1 = 0.097 | 1001.97 | 1.336
m1 = 0.1797 | 1005.97 | 1.3382
m1 = 0.1833 | 1006.34 | 1.3388
m1 = 0.185 | 1006.46 | 1.339
m1 = 0.267 | 1010.2 | 1.3407
m1 = 0.2863 | 1011.4 | 1.3416
m1 = 0.2866 | 1011.29 | 1.3414
m1 = 0.3496 | 1014.39 | 1.343
m1 = 0.3564 | 1014.36 | 1.3433
m1 = 0.3651 | 1014.07 | 1.3437

NCC(=O)O [2-aminoacetic acid] + O
Conditions | mass density [kg/m3] | molar conductivity [S·m2/mol] | viscosity [mPa·s]
[1], m1 = 0.0521 | 998.7 | – | –
[1], m1 = 0.0997 | 1000.21 | – | –
[1], m1 = 0.1577 | 1002.02 | – | –
[1], m1 = 0.1992 | 1003.32 | – | –
[1], m1 = 0.2235 | 1004.07 | – | –
[1], m1 = 0.2902 | 1006.11 | – | –
[1], m1 = 0.3266 | 1007.22 | – | –
[1], m1 = 0.4495 | 1010.93 | – | –
[1], m1 = 0.5179 | 1012.94 | – | –
[3], c1 = 0.0007166 | – | 0.0153 | –
[3], c1 = 0.001486 | – | 0.0148 | –
[3], c1 = 0.002275 | – | 0.0146 | –
[3], c1 = 0.003892 | – | 0.0145 | –
[3], c1 = 0.00566 | – | 0.0142 | –
[3], c1 = 0.007383 | – | 0.0139 | –
[3], c1 = 0.00904 | – | 0.0137 | –
[3], c1 = 0.0116 | – | 0.0135 | –
[3], c1 = 0.01431 | – | 0.0132 | –
[3], c1 = 0.01747 | – | 0.0129 | –
[3], c1 = 0.02104 | – | 0.0126 | –
[3], c1 = 0.02475 | – | 0.0123 | –
[3], c1 = 0.052 | – | – | 0.881
[3], c1 = 0.0997 | – | – | 0.892
[3], c1 = 0.158 | – | – | 0.91
[3], c1 = 0.1999 | – | – | 0.92
[3], c1 = 0.2244 | – | – | 0.929
[3], c1 = 0.292 | – | – | 0.939
[3], c1 = 0.3289 | – | – | 0.945
[3], c1 = 0.4544 | – | – | 0.965
[3], c1 = 0.5246 | – | – | 0.98

[2], Standard Abbe refractometry
Conditions | refractive index
m1 = 0.0941 | 1.3333
m1 = 0.1492 | 1.3339
m1 = 0.1972 | 1.3345
m1 = 0.2611 | 1.3354
m1 = 0.2975 | 1.3359
m1 = 0.303 | 1.336
m1 = 0.3935 | 1.337
m1 = 0.4408 | 1.3376

C[C@H](N)C(=O)O [(S)-2-aminopropanoic acid] + O
Conditions | mass density [kg/m3] | molar conductivity [S·m2/mol] | viscosity [mPa·s]
[1], m1 = 0.0499 | 998.55 | – | –
[1], m1 = 0.0849 | 999.6 | – | –
[1], m1 = 0.1397 | 1001.23 | – | –
[1], m1 = 0.1784 | 1002.37 | – | –
[1], m1 = 0.2346 | 1004.02 | – | –
[1], m1 = 0.2731 | 1005.13 | – | –
[1], m1 = 0.3275 | 1006.7 | – | –
[1], m1 = 0.3551 | 1007.46 | – | –
[1], m1 = 0.4168 | 1009.23 | – | –
[1], m1 = 0.4513 | 1010.16 | – | –
[3], c1 = 0.0007166 | – | 0.0153 | –
[3], c1 = 0.001486 | – | 0.0148 | –
[3], c1 = 0.002275 | – | 0.0146 | –
[3], c1 = 0.003892 | – | 0.0145 | –
[3], c1 = 0.00566 | – | 0.0142 | –
[3], c1 = 0.007383 | – | 0.0139 | –
[3], c1 = 0.00904 | – | 0.0137 | –
[3], c1 = 0.0116 | – | 0.0135 | –
[3], c1 = 0.01431 | – | 0.0132 | –
[3], c1 = 0.01747 | – | 0.0129 | –
[3], c1 = 0.02104 | – | 0.0126 | –
[3], c1 = 0.02475 | – | 0.0123 | –
[3], c1 = 0.0532 | – | – | 0.886
[3], c1 = 0.091 | – | – | 0.891
[3], c1 = 0.1498 | – | – | 0.897
[3], c1 = 0.1918 | – | – | 0.902
[3], c1 = 0.2526 | – | – | 0.912
[3], c1 = 0.2941 | – | – | 0.921
[3], c1 = 0.3537 | – | – | 0.928
[3], c1 = 0.3827 | – | – | 0.936
[3], c1 = 0.4512 | – | – | 0.951
[3], c1 = 0.4876 | – | – | 0.957

[2], Standard Abbe refractometry
Conditions | refractive index
m1 = 0.0533 | 1.3326
m1 = 0.091 | 1.333
m1 = 0.1496 | 1.3337
m1 = 0.1913 | 1.3342
m1 = 0.2516 | 1.335
m1 = 0.2926 | 1.3355
m1 = 0.3514 | 1.3362
m1 = 0.3799 | 1.3365
m1 = 0.4471 | 1.3374
m1 = 0.4827 | 1.3378

CC(C)[C@H](N)C(=O)O [L-valine] + O
Conditions | mass density [kg/m3] | molar conductivity [S·m2/mol] | viscosity [mPa·s]
[1], m1 = 0.1173 | 1000.17 | – | –
[1], m1 = 0.1402 | 1000.77 | – | –
[1], m1 = 0.1894 | 1002.03 | – | –
[1], m1 = 0.2512 | 1003.59 | – | –
[1], m1 = 0.2973 | 1004.74 | – | –
[1], m1 = 0.3211 | 1005.32 | – | –
[1], m1 = 0.3841 | 1006.84 | – | –
[1], m1 = 0.4378 | 1008.11 | – | –
[3], c1 = 0.0007166 | – | 0.0153 | –
[3], c1 = 0.001486 | – | 0.0148 | –
[3], c1 = 0.002275 | – | 0.0146 | –
[3], c1 = 0.003892 | – | 0.0145 | –
[3], c1 = 0.00566 | – | 0.0142 | –
[3], c1 = 0.007383 | – | 0.0139 | –
[3], c1 = 0.00904 | – | 0.0137 | –
[3], c1 = 0.0116 | – | 0.0135 | –
[3], c1 = 0.01431 | – | 0.0132 | –
[3], c1 = 0.01747 | – | 0.0129 | –
[3], c1 = 0.1173 | – | – | 0.892
[3], c1 = 0.1403 | – | – | 0.899
[3], c1 = 0.1898 | – | – | 0.906
[3], c1 = 0.2521 | – | – | 0.916
[3], c1 = 0.2987 | – | – | 0.938
[3], c1 = 0.3228 | – | – | 0.943
[3], c1 = 0.3867 | – | – | 0.958
[3], c1 = 0.4413 | – | – | 0.979

[2], Standard Abbe refractometry
Conditions | refractive index
m1 = 0.1173 | 1.3348
m1 = 0.1402 | 1.3353
m1 = 0.1894 | 1.3363
m1 = 0.2512 | 1.3375
m1 = 0.2973 | 1.3384
m1 = 0.3211 | 1.3389
m1 = 0.3841 | 1.3401
m1 = 0.4378 | 1.341
